Measured values published in patent publication US20060128792A1, “Deguelin as a chemopreventive agent for lung cancer” (priority 2002, published 2006).
Several values for one entry are separate records, joined by “and”; a condition that tells them apart may be missing. Equal values may be shown once.

Tests used:
Chago = test: MTT assay, growth inhibition by deguelin or deguelin derivatives; assay type: cell-based; conditions: 3 days
A549 = test: as above; assay type: cell-based; conditions: A549, 3 days
NHBE = test: MTT assay, growth inhibition / viability of normal HBE cells; conditions: for Avg. % con / MTT value, mean of replicates (unheaded line) / MTT value, replicate (unheaded line): NHBE, 3 days
Experimental: Cells and Cell Cultures. […] Normal HBE (NHBE) cells were purchased from Clontech (Palo Alto, Calif.). […] Cells were grown on tissue culture plasticware (Falcon; Bector, Dickinson, Bedford, Mass.) at 37° C. in a humidified atmosphere with 5% C02. For the analyses of growth inhibition, cell cycle, and induction of apoptosis by deguelin, NHBE cells, HBE cell lines, and squamous HBE cells were cultured in KSFM (Life Technologies) containing 2 μg/ml of EGF and bovine pitutary extract.
Cell Treatment with Deguelin and Determination of Growth Inhibition. To measure the effects of deguelin on cell proliferation, NHBE, 1799 cells, 1198 cells, and 1170 cells were transferred onto 96-well plates at densities ranging from 2×10^3 to 4×10^3 cells/well. After 1 day, the cells were changed to the fresh medium containing various concentrations of deguelin dissolved in DMSO (final concentration, 0.1%). Control cultures received 0.1% dimethyl sulfoxide (DMSO) as did the deguelin-treated cultures. […] After 1 day of infection, cells were treated with 10^−7 M or 10^−6 M of deguelin, or 0.1% DMSO as a control, and then incubated for 2 days. […] Six replicate wells were used for each analysis.

ERK1/2 (MAPK) = test: ERK 1/2 kinase assay (MBP phosphorylation, immunoprecipitate of treated cells); assay type: cell-based; conditions: 1799 cells, 10^−7 M deguelin
Experimental: ERK 1/2 Kinase assay. ERK1/2 activity was determined by analyzing MAPK-induced phosphorylation of myelin basic protein (MBP) as previously described (Lee et al., 2002). Briefly, 1799 cells cultured in KSFM containing 10^−7 M deguelin for different time periods were lysed in lysis buffer, and ERK-1 and -2 were immunoprecipitated from 100 μg of cell extracts with antibodies (1 μg) that recognize ERK-1 and -2 (Santa Cruz Biotechnology) by rotation at 4° C. for overnight. The total volume was adjusted to 0.5 ml with lysis buffer. Protein A sepharose beads (20 μl) (Amersham Pharmacia Biotech) were added and incubated at 4° C. for 2 hour. The beads were washed three times with lysis buffer and once with kinase buffer (20 MM Hepes [pH 7.5], 20 mM β-glycerol phosphate, 10 mM PNPP, 10 mM MgCl2, 1 mM dithiothreitol, 50 mM sodium vanadate). Kinase assays were performed by incubating the beads with 30 μl kinase buffer to which […], 5 μCi [γ^32P] ATP (2000 cpm/pmol), and 2 μg MBP (Cell Signaling Technology) were added. The kinase reaction was performed at 30° C. for 20 min. The samples were suspended in Laemmli buffer, boiled for 5 min, and the samples were analyzed by SDS-PAGE. The gel was dried and autoradiographed.

NSCLC cells = test: MTT assay, growth inhibition of NSCLC cells by deguelin and deguelin derivatives (Table 2, FIG. 7); assay type: cell-based; conditions: 72 h, depending on the cell line, 3 days
H358 = test: MTT assay, growth inhibition by deguelin or deguelin derivatives; assay type: cell-based; conditions: H358, 3 days
H1299 = test: as above; assay type: cell-based; conditions: H1299, 3 days
COX-2 = test: COX-1 and COX-2 expression by northern and western blotting; assay type: cell-based; conditions: premalignant cells (1799, squamous HBE); 1 nM, 10 nM or 100 nM
Experimental: COX-2 on the other hand, is found to be induced and expressed in neoplastic growth. […] Thus, it was determined whether deguelin regulates the expression of COX-2 in lung cancer cells. Normal, premalignant, and malignant lung cancer cells, NHBE, 1799, 1198, and 1170, were treated with 1 nM, 10 nM, or 100 nM deguelin for 1 day and COX-1 and COX-2 expression were analyzed by northern blotting.
In this study, the protein and mRNA expression of COX-1 and COX-2 were tested in 1799 and squamous (Sq) HBE cells. These cells were treated with 1 nM, 10 nM, or 100 nM deguelin and the COX-1 and COX-2 RNA and analyzed by northern blotting and western blotting. Equal amount of mRNA in each lane was confirmed by northern blot analysis using GAPDH (data not shown).

COc1cc2c(cc1OC)[C@@H]1C(=O)c3ccc4c(c3O[C@@H]1CO2)C=CC(C)(C)O4 [Deguelin]
Avg. % con (Chago; deguelin 10^−6M): 0.56 % con | MTT value, mean of replicates (unheaded line) (Chago; deguelin 10^−6M): 0.086 | MTT value, replicate (unheaded line) (Chago; deguelin 10^−6M): 0.094 and 0.086 and 0.078 | Avg. % con (Chago; deguelin 10^−8M): 0.65 % con | MTT value, mean of replicates (unheaded line) (Chago; deguelin 10^−8M): 0.1 | MTT value, replicate (unheaded line) (Chago; deguelin 10^−8M): 0.101 and 0.093 and 0.106 | Avg. % con (Chago; deguelin 10^−10M): 1.24 % con | MTT value, mean of replicates (unheaded line) (Chago; deguelin 10^−10M): 0.191 | MTT value, replicate (unheaded line) (Chago; deguelin 10^−10M): 0.192 and 0.184 and 0.197 | Avg. % con (Chago; deguelin 10^−12M): 1.18 % con | MTT value, mean of replicates (unheaded line) (Chago; deguelin 10^−12M): 0.182 | MTT value, replicate (unheaded line) (Chago; deguelin 10^−12M): 0.175 and 0.179 and 0.192 | Avg. % con (A549; deguelin 10^−6M): 0.13 % con | MTT value, mean of replicates (unheaded line) (A549; deguelin 10^−6M): 0.060 | MTT value, replicate (unheaded line) (A549; deguelin 10^−6M): 0.057 (2×) and 0.066 | Avg. % con (A549; deguelin 10^−8M): 0.83 % con | MTT value, mean of replicates (unheaded line) (A549; deguelin 10^−8M): 0.382 | MTT value, replicate (unheaded line) (A549; deguelin 10^−8M): 0.381 (2×) and 0.385 | Avg. % con (A549; deguelin 10^−10M): 0.88 % con | MTT value, mean of replicates (unheaded line) (A549; deguelin 10^−10M): 0.408 | MTT value, replicate (unheaded line) (A549; deguelin 10^−10M): 0.375 and 0.422 and 0.427 | Avg. % con (A549; deguelin 10^−12M): 0.89 % con | MTT value, mean of replicates (unheaded line) (A549; deguelin 10^−12M): 0.411 | MTT value, replicate (unheaded line) (A549; deguelin 10^−12M): 0.416 and 0.404 and 0.412 | effect on NHBE viability (NHBE; MTT assay, 10^−9 M to 10^−7 M, up to 3 days): minimal effect | Avg. % con (NHBE; deguelin 10^−6M): 0.23 % con | MTT value, mean of replicates (unheaded line) (NHBE; deguelin 10^−6M): 0.099 | MTT value, replicate (unheaded line) (NHBE; deguelin 10^−6M): 0.129 and 0.082 and 0.087 | Avg. % con (NHBE; deguelin 10^−8M): 0.53 % con | MTT value, mean of replicates (unheaded line) (NHBE; deguelin 10^−8M): 0.229 | MTT value, replicate (unheaded line) (NHBE; deguelin 10^−8M): 0.249 and 0.227 and 0.21 | Avg. % con (NHBE; deguelin 10^−10M): 0.81 % con | MTT value, mean of replicates (unheaded line) (NHBE; deguelin 10^−10M): 0.347 | MTT value, replicate (unheaded line) (NHBE; deguelin 10^−10M): 0.355 and 0.341 and 0.346 | Avg. % con (NHBE; deguelin 10^−12M): 0.90 % con | MTT value, mean of replicates (unheaded line) (NHBE; deguelin 10^−12M): 0.386 | MTT value, replicate (unheaded line) (NHBE; deguelin 10^−12M): 0.417 and 0.365 and 0.377 | MAPK activity (ERK1/2 (MAPK)): not affected | IC50 (NSCLC cells): 100 to 1000 nM | Avg. % con (H358; deguelin 10^−6M): 0.68 % con | MTT value, mean of replicates (unheaded line) (H358; deguelin 10^−6M): 0.111 | MTT value, replicate (unheaded line) (H358; deguelin 10^−6M): 0.108 and 0.113 and 0.112 | Avg. % con (H358; deguelin 10^−8M): 0.74 % con | MTT value, mean of replicates (unheaded line) (H358; deguelin 10^−8M): 0.122 | MTT value, replicate (unheaded line) (H358; deguelin 10^−8M): 0.114 and 0.128 and 0.125 | Avg. % con (H358; deguelin 10^−10M): 0.79 % con | MTT value, mean of replicates (unheaded line) (H358; deguelin 10^−10M): 0.129 | MTT value, replicate (unheaded line) (H358; deguelin 10^−10M): 0.122 and 0.12 and 0.146 | Avg. % con (H358; deguelin 10^−12M): 0.87 % con | MTT value, mean of replicates (unheaded line) (H358; deguelin 10^−12M): 0.143 | MTT value, replicate (unheaded line) (H358; deguelin 10^−12M): 0.148 and 0.143 and 0.139 | Avg. % con (H1299; deguelin 10^−6M): 0.36 % con | MTT value, mean of replicates (unheaded line) (H1299; deguelin 10^−6M): 0.048 | MTT value, replicate (unheaded line) (H1299; deguelin 10^−6M): 0.052 and 0.043 and 0.049 | Avg. % con (H1299; deguelin 10^−8M): 0.78 % con | MTT value, mean of replicates (unheaded line) (H1299; deguelin 10^−8M): 0.104 | MTT value, replicate (unheaded line) (H1299; deguelin 10^−8M): 0.101 and 0.108 and 0.103 | Avg. % con (H1299; deguelin 10^−10M): 0.73 % con | MTT value, mean of replicates (unheaded line) (H1299; deguelin 10^−10M): 0.098 | MTT value, replicate (unheaded line) (H1299; deguelin 10^−10M): 0.119 and 0.087 and 0.089 | Avg. % con (H1299; deguelin 10^−12M): 0.98 % con | MTT value, mean of replicates (unheaded line) (H1299; deguelin 10^−12M): 0.132 | MTT value, replicate (unheaded line) (H1299; deguelin 10^−12M): 0.121 and 0.136 and 0.138 | induced COX-2 expression (COX-2): downregulated
